Experimental findings from patent US6090834A, “Substituted oxazoles for the treatment of inflammation” (G.D. Searle & Co., priority 1998, dated 2000) are described below.

For assay [1], the system named is hyperalgesic foot withdrawal. The assay is described as follows: Rat Carrageenan-induced Analgesia Test. The class given is in vivo, Male Sprague-Dawley rats. To be noted: oral, hyperalgesic foot withdrawal 3 h after carrageenan. As to the method:
Rat Carrageenan-induced Analgesia Test
The analgesia test using rat carrageenan was performed with materials, reagents and procedures essentially as described by Hargreaves, et al., (Pain, 32, 77 (1988)). Male Sprague-Dawley rats were treated as previously described for the Carrageenan Foot Pad Edema test. Three hours after the injection of the carrageenan, the rats were placed in a special plexiglass container with a transparent floor having a high intensity lamp as a radiant heat source, positionable under the floor. After an initial twenty minute period, thermal stimulation was begun on either the injected foot or on the contralateral uninjected foot. A photoelectric cell turned off the lamp and timer when light was interrupted by paw withdrawal. The time until the rat withdraws its foot was then measured. The withdrawal latency in seconds was determined for the control and drug-treated groups, and percent inhibition of the hyperalgesic foot withdrawal determined.

Another assay relates to carrageenan foot edema. Nature of the assay: Rat Carrageenan Foot Pad Edema Test. The format is in vivo, Male Sprague-Dawley rats. As to conditions: oral, 3 h after carrageenan; for inhibition in vivo at 10 mg/kg: Rattus norvegicus, 10 mg/kg body weight, read-out: RAT PAW EDEMA % Inhibition @ 10 mg/kg body weight. As for the experimental part: Rat Carrageenan Foot Pad Edema Test
Male Sprague-Dawley rats were selected in each group so that the average body weight was as close as possible. Rats were fasted with free access to water for over sixteen hours prior to the test. […] One hour later a subplantar injection of 0.1 mL of 1% solution of carrageenan/sterile 0.9% saline was administered and the volume of the injected foot was measured with a displacement plethysmometer connected to a pressure transducer with a digital indicator. Three hours after the injection of the carrageenan, the volume of the foot was again measured.
(In general: Carrageenan injected into the paw causes an acute inflammation.)

The next assay relates to COX-2. The assay is described as follows: COX-2 activity in vitro (PGE2 formed, ELISA). The class given is biochemical, human or murine. To be noted: recombinant enzyme, arachidonic acid 10 μM, pH 8.0; read-out: COX II ID50. As for the experimental part: (§1) Evaluation of COX I and COX II activity in vitro
(§2) The COX-2 inhibition activity of the compounds of this invention illustrated in the Examples was determined by the following methods. a. Preparation of recombinant COX baculoviruses
(§3) Recombinant COX-1 and COX-2 were prepared as described by Gierse et al, [J. Biochem., 305, 479-84 (1995)]. A 2.0 kb fragment containing the coding region of either human or murine COX-1 or human or murine COX-2 was cloned into a BamH1 site of the baculovirus transfer vector pVL1393 (Invitrogen) to generate the baculovirus transfer vectors for COX-1 and COX-2 in a manner similar to the method of D. R. O'Reilly et al (Baculovirus Expression Vectors: A Laboratory Manual (1992)). Recombinant baculoviruses were isolated by transfecting 4 μg of baculovirus transfer vector DNA into SF9 insect cells (2×10^8) along with 200 ng of linearized baculovirus plasmid DNA by the calcium phosphate method. See M. D. Summers and G. E. Smith, A Manual of Methods for Baculovirus vectors and Insect Cell Culture Procedures, Texas Agric. Exp. Station Bull. 1555 (1987). Recombinant viruses were purified by three rounds of plaque purification and high titer (10^7 -10^8 pfu/ml) stocks of virus were prepared. For large scale production, SF9 insect cells were infected in 10 liter fermentors (0.5×10^6 /ml) with the recombinant baculovirus stock such that the multiplicity of infection was 0.1. After 72 hours the cells were centrifuged and the cell pellet homogenized in Tris/Sucrose (50 mM: 25%, pH 8.0) containing 1% 3-[(3-cholamidopropyl)dimethylammonio]-1-propanesulfonate (CHAPS). The homogenate was centrifuged at 10,000×G for 30 minutes, and the resultant supernatant was stored at -80° C. before being assayed for COX activity. […]
(§4) b. Assay for COX-1 and COX-2 activity
(§5) COX activity was assayed as PGE2 formed/μg protein/time using an ELISA to detect the prostaglandin released. CHAPS-solubilized insect cell membranes containing the appropriate COX enzyme were incubated in a potassium phosphate buffer (50 mM, pH 8.0) containing epinephrine, phenol, and heme with the addition of arachidonic acid (10 μM). Compounds were pre-incubated with the enzyme for 10-20 minutes prior to the addition of arachidonic acid. Any reaction between the arachidonic acid and the enzyme was stopped after ten minutes at 37° C./room temperature by transferring 40 μl of reaction mix into 160 μl ELISA buffer and 25 μM indomethacin. The PGE2 formed was measured by standard ELISA technology (Cayman Chemical).
In general terms: An ELISA detects its analyte on a solid surface through an enzyme-linked reagent.

The test system of the next assay is COX-1. The assay is described as follows: COX-1 activity in vitro (PGE2 formed, ELISA). The class given is biochemical, human or murine. To be noted: recombinant enzyme, arachidonic acid 10 μM, pH 8.0; read-out: COX-1 ID50. As for the experimental part:
as §1, §2, §3, §4, §5

Regarding `CS(=O)(=O)c1ccc(-c2oc(CCc3ccccc3)nc2-c2ccc(F)cc2)cc1` [Example 1, 4-(4-fluorophenyl)-2-(2-phenylethyl)-5-(4-(methylsulfonyl)phenyl)oxazole], the “ANALGESIA % Inhibition @ 20 mg/kg body weight” value in assay [1] was found to be 44%. Besides, in the assay on carrageenan foot edema (20 mg/kg body weight), the “RAT PAW EDEMA % Inhibition (* @ 20 mg/kg body weight)” value stood at 41%. In addition, the IC50 in the assay with COX-2 is less than 0.1 µM; with COX-1, 6.9 µM.

In the case of `CS(=O)(=O)c1ccc(-c2oc(C(c3ccccc3)c3ccccc3)nc2-c2ccc(F)cc2)cc1` [Example 10, 2-Diphenylmethyl-4-(4-fluorophenyl)-5-[4-methylsulfonylphenyloxazole]], the inhibition in vivo at 10 mg/kg in the assay with carrageenan foot edema came to 18%.

For the molecule `COc1ccc(-c2oc(C(F)(F)F)nc2-c2ccc(S(C)(=O)=O)cc2)cc1F` [Example 70, 5-(3-fluoro-4-methoxyphenyl)-4-(4-methylsulfonylphenyl)-2-trifluoromethyloxazole], the “RAT PAW EDEMA % Inhibition (1 @ 30 mg/kg body weight)” value in the assay with carrageenan foot edema was found to be 46%. The IC50 with COX-2 was less than 0.1 µM; in the assay with COX-1, more than 100 µM.

In the case of `CC(C)(C)c1nc(-c2ccc(F)cc2)c(-c2ccc(S(C)(=O)=O)cc2)o1` [Example 7, 2-(Tert-butyl)-4-(4-fluorophenyl)-5-[4-(methylsulfonyl)phenyl]oxazole], in the assay on carrageenan foot edema, the inhibition in vivo at 10 mg/kg is 24%.

Regarding `CS(=O)(=O)c1ccc(-c2oc(COc3ccc(F)cc3)nc2-c2ccc(F)cc2)cc1` [Example 31, 4-(4-fluorophenyl)-5-[4-(methylsulfonyl)-phenyl]-2-[(4-fluorophenoxy)methyl]oxazole], the inhibition in vivo at 10 mg/kg in the assay on carrageenan foot edema was 5%. Also, the IC50 with COX-2 is less than 0.1 µM; with COX-1, more than 100 µM.

As for `COc1ccc(Cc2nc(-c3ccc(F)cc3)c(-c3ccc(S(C)(=O)=O)cc3)o2)cc1` [Example 8, 4-(4-Fluorophenyl)-2-(4-methoxyphenyl)methyl-5-[4-methylsulfonylphenyl]oxazole], the inhibition in vivo at 10 mg/kg in the assay with carrageenan foot edema worked out at 12%.

For `CS(=O)(=O)c1ccc(-c2oc(-c3ccccc3)nc2-c2ccc(F)cc2)cc1` [Example 3, 4-(4-Fluorophenyl)-5-[4-(methylsulfonyl)phenyl]-2-phenyloxazole], the inhibition in vivo at 10 mg/kg in the assay on carrageenan foot edema amounted to 30%. Also, the results for the IC50 in the assay on COX-2 and in the assay with COX-1 were less than 0.1 µM and more than 10 µM, respectively.

As for `COc1nc(-c2ccccc2)c(-c2ccc(S(N)(=O)=O)cc2)o1` [Example 55, 4-[2-methoxy-4-phenyl-5-oxazolyl]benzenesulfonamide], the “RAT PAW EDEMA % Inhibition (1 @ 30 mg/kg body weight)” value in the assay with carrageenan foot edema came to 37%. For the same molecule, the IC50 in the assay with COX-2 was less than 0.1 µM; in the assay with COX-1 it was 9.7 µM.

As to `CS(=O)(=O)c1ccc(-c2oc(CC(=O)O)nc2-c2ccc(F)cc2)cc1` [Example 16, 2-[4-(4-Fluorophenyl)-5-[4-(methylsulfonyl)phenyl]oxazol-2-yl]acetic acid], in the assay with carrageenan foot edema, the inhibition in vivo at 10 mg/kg is 26%.

Turning to `CS(=O)(=O)c1ccc(-c2oc(COc3ccccc3)nc2-c2ccc(F)cc2)cc1` [Example 28, 4-(4-fluorophenyl)-5-[4-(methylsulfonyl)-phenyl]-2-phenoxymethyloxazole], the inhibition in vivo at 10 mg/kg with carrageenan foot edema was 2%.

In the case of `CS(=O)(=O)c1ccc(-c2oc(COc3cccc(Cl)c3)nc2-c2ccc(F)cc2)cc1` [Example 30, 4-(4-fluorophenyl)-5-[4-(methylsulfonyl)phenyl]-2-(3-chlorophenoxy)methyloxazole], the inhibition in vivo at 10 mg/kg with carrageenan foot edema was found to be 4%. Also, the IC50 in the assay with COX-2 is less than 0.1 µM; with COX-1, more than 100 µM.

`CCOC(=O)Cc1nc(-c2ccc(F)cc2)c(-c2ccc(S(C)(=O)=O)cc2)o1` [Example 11]: the inhibition in vivo at 10 mg/kg with carrageenan foot edema stood at 42%.

Consider `Cc1ccc(-c2nc(C(F)(F)F)oc2-c2ccc(S(C)(=O)=O)cc2)cc1` [Example 68, 4-(4-methylphenyl)-5-(4-methylsulfonylphenyl)-2-trifluoromethyl-oxazole], for which the IC50 in the assay with COX-2 was less than 0.1 µM; in the assay with COX-1 it was 2 µM.

As to `COc1ccc(-c2oc(CC(=O)O)nc2-c2ccc(S(N)(=O)=O)cc2)cc1F` [Example 66, [4-(4-aminosulfonylphenyl)-5-(3-fluoro-4-methoxyphenyl)]-2-oxazoleacetic acid], the IC50 in the assay with COX-2 worked out at 13 µM; with COX-1, 21 µM.

As to `NC(=O)c1nc(-c2ccccc2)c(-c2ccc(S(N)(=O)=O)cc2)o1` [Example 72, 5-(4-aminosulfonylphenyl)-4-phenyl-oxazole-2-carboxamide], the figures for the IC50 in the assay on COX-2 and in the assay with COX-1 were 2.2 µM and more than 100 µM, respectively.

Regarding `NS(=O)(=O)c1ccc(-c2oc(CCC(=O)O)nc2-c2ccccc2)cc1` [Example 43, [5-(4-aminosulfonylphenyl)-4-phenyl]-2-oxazolepropionic acid], the IC50 was determined as 3.1 µM in the assay on COX-2 and 2.3 µM with COX-1.

As for `CN(C)c1ccc(-c2nc(C(F)(F)F)oc2-c2ccc(S(N)(=O)=O)cc2)cc1` [Example 65, 4-[4-Dimethylaminophenyl-2-trifluoromethyl-5-oxazolyl]benzenesulfonamide], the IC50 in the assay with COX-2 and in the assay with COX-1 was less than 0.1 µM each time.
